One compound from US20260048059A1, “USE OF SUBSTITUTED BENZOXAZOLE AND BENZOFURAN COMPOUNDS FOR THE TREATMENT AND PREVENTION OF DISEASES ASSOCIATED WITH CHRONIC FATIGUE, EXHAUSTION AND/OR EXERTIONAL INTOLERANC” (MITODICURE GMBH, priority 2022, published 2026) can be followed below.

The test system of this test is isolated rat soleus muscle. In words: Ex vivo isolated rat soleus muscle: residual contractile force in high KCl (12.5 mM) buffer. The note with it: salbutamol 1 μM alone (control group); 30 min in KCl 12.5 mM buffer, relative to last force in initial buffer.

Text: The isolated rat muscle either soleus muscle or extensor digitorum longus muscle is a well-characterized and well-validated model for the study of the function of the Na^+/K^+ ATPase. The isolated rat soleus muscle is particularly appropriate for experiments ex vivo as it is very thin so that there is no need for blood supply. […] In the experimental setting used, the high KCl concentration buffer causes partial depolarization that leads to sodium influx to disturb and to decrease excitability to subsequently reduce muscle force. Stimulation of Na^+/K^+ ATPase lowers intracellular sodium levels towards physiological levels to restore excitability and muscular force during electrical stimulation.
As the phosphodiesterase isoenzyme subtype 7 (PDE7) is the predominant PDE isoenzyme in skeletal muscle to raise cAMP this ex vivo model is suited for the testing the effect of PDE7 inhibitors and in particular their effect on force generation disturbed by mechanisms that worsen excitability or the energetic situation. […] High level activity of Na^+/K^+ ATPase stimulated by cAMP can counteract the decrease in excitability and the loss of force. […]
Force measurement: The experimental set-up used for force measurements allowed for the simultaneous recordings from 6 muscles in separate incubation chambers in parallel. Force was recorded and stored with a Notocord HEM data acquisition system. […]

Regarding `CC(C)(C)NCC(O)c1ccc(O)c(CO)c1` (stereo not shown) [Salbutamol], the “Mean residual contractile force in % (SEM in %)” value is 26.6 (3.7); n = 31%.
